What all share (format): functional
Common to all, as to conditions: route intraperitoneal

For test [1], the system named is Rattus norvegicus. Description: Antiinflammatory activity in Wister albino rat assessed as inhibition of carrageenan-induced paw edema at 50 mg/kg, ip administered 1 hr before carrageenan challenge measured after 2 hrs by plethysmometer relative to control.
In test [2] the test system is Rattus norvegicus. The test is described as follows: Antiinflammatory activity in Wister albino rat assessed as inhibition of carrageenan-induced paw edema at 50 mg/kg, ip administered 1 hr before carrageenan challenge measured after 4 hrs by plethysmometer relative to indomethacin. In general terms: The carrageenan paw model is a standard test of acute inflammation.

The subject of test [3] is Rattus norvegicus. Description: Antiinflammatory activity in Wister albino rat assessed as inhibition of carrageenan-induced paw edema at 50 mg/kg, ip administered 1 hr before carrageenan challenge measured after 3 hrs by plethysmometer relative to control.
For test [4], the system named is Rattus norvegicus. Description: Antiinflammatory activity in Wister albino rat assessed as inhibition of carrageenan-induced paw edema at 50 mg/kg, ip administered 1 hr before carrageenan challenge measured after 24 hrs by plethysmometer relative to control.
The subject of test [5] is Rattus norvegicus. Description: Antiinflammatory activity in Wister albino rat assessed as inhibition of carrageenan-induced paw edema at 50 mg/kg, ip administered 1 hr before carrageenan challenge measured after 4 hrs by plethysmometer relative to control.
In test [6] the test system is Rattus norvegicus. Description: Antiinflammatory activity in Wister albino rat assessed as inhibition of carrageenan-induced paw edema at 50 mg/kg, ip administered 1 hr before carrageenan challenge measured after 1 hr by plethysmometer relative to control.
Test [7] deals with Rattus norvegicus. The test is described as follows: Antiinflammatory activity in Wister albino rat assessed as inhibition of carrageenan-induced paw edema at 10 mg/kg, ip administered 1 hr before carrageenan challenge measured after 2 hrs by plethysmometer relative to control.
Test [8] concerns Rattus norvegicus. Description: Antiinflammatory activity in Wister albino rat assessed as inhibition of carrageenan-induced paw edema at 10 mg/kg, ip administered 1 hr before carrageenan challenge measured after 1 hr by plethysmometer relative to control.
The test system of test [9] is Rattus norvegicus. Description: Antiinflammatory activity in Wister albino rat assessed as inhibition of carrageenan-induced paw edema at 10 mg/kg, ip administered 1 hr before carrageenan challenge measured after 3 hrs by plethysmometer relative to control.
The test system of test [10] is Rattus norvegicus. The test is described as follows: Antiinflammatory activity in Wister albino rat assessed as inhibition of carrageenan-induced paw edema at 10 mg/kg, ip administered 1 hr before carrageenan challenge measured after 24 hrs by plethysmometer relative to control.
In test [11] the test system is Rattus norvegicus. The test is described as follows: Antiinflammatory activity in Wister albino rat assessed as inhibition of carrageenan-induced paw edema at 10 mg/kg, ip administered 1 hr before carrageenan challenge measured after 4 hrs by plethysmometer relative to control.

Structures are written as SMILES.

These results are taken from ChEMBL document CHEMBL1949547, “Computer-assisted rational design, synthesis, and bioassay of non-steroidal anti-inflammatory agents” (2012).

For the molecule `CCOC(=O)c1c(-c2ccc(Cl)cc2)cc(-c2ccccc2)nc1N1CCCCC1`, the inhibition in vivo at 50 mg/kg stood at 29.1% with Rattus norvegicus [1]; 103% with Rattus norvegicus [2]; 24% in the test with Rattus norvegicus [3]; 36.4% in the test on Rattus norvegicus [4]; 70.1% in the test on Rattus norvegicus [5]; 59.3% in the test on Rattus norvegicus [6].

With `CCOC(=O)c1c(-c2ccc(Cl)c(Cl)c2)cc(-c2ccccc2)nc1N1CCCCC1`, the inhibition in vivo at 50 mg/kg in the test on Rattus norvegicus [1] came out at 67.9%; in the test with Rattus norvegicus [2], 95.1%; in the test with Rattus norvegicus [3], 46.3%; with Rattus norvegicus [4] it was 48.9%; in the test on Rattus norvegicus [5], 64.7%; in the test on Rattus norvegicus [6], 53.5%.

Turning to `CCOC(=O)c1c(-c2ccc(Cl)cc2)cc(-c2ccccc2)nc1N1CCOCC1`, the inhibition in vivo at 50 mg/kg was 54.5% with Rattus norvegicus [1]; 120% in the test on Rattus norvegicus [2]; 69.8% in the test with Rattus norvegicus [3]; 61.7% in the test with Rattus norvegicus [4]; 81.3% in the test with Rattus norvegicus [5]; 59.5% with Rattus norvegicus [6].

Turning to `CCOC(=O)c1c(-c2ccc(Cl)c(Cl)c2)cc(-c2ccccc2)nc1N1CCOCC1`, the inhibition in vivo at 50 mg/kg with Rattus norvegicus [1] was 74.3%; in the test on Rattus norvegicus [2], 96.6%; in the test with Rattus norvegicus [3], 67.7%; with Rattus norvegicus [4] it was 61.6%; in the test on Rattus norvegicus [5] it was 65.7%; in the test on Rattus norvegicus [6], 63.5%.

Consider `CCOC(=O)c1c(-c2ccc(Cl)cc2)cc(-c2ccccc2)nc1N1CCN(C)CC1`, for which the inhibition in vivo at 50 mg/kg with Rattus norvegicus [1] came out at 39.6%; in the test with Rattus norvegicus [2], 55.6%; in the test with Rattus norvegicus [3], 67.8%; in the test on Rattus norvegicus [4], 53.2%; in the test with Rattus norvegicus [5], 37.8%; in the test on Rattus norvegicus [6], 65.8%.

In the case of `CCOC(=O)c1c(-c2ccc(Cl)cc2)cc(-c2ccccc2)nc1Nc1ccccc1`, the inhibition in vivo at 50 mg/kg in the test on Rattus norvegicus [1] came out at 73.9%; in the test with Rattus norvegicus [2], 123%; in the test with Rattus norvegicus [3] it was 73.7%; in the test with Rattus norvegicus [4], 46.5%; in the test on Rattus norvegicus [5], 83.8%; in the test with Rattus norvegicus [6], 62.3%.

In the case of `CCOC(=O)c1c(-c2ccc(Cl)cc2)cc(-c2ccccc2)nc1Nc1ccc(C)cc1`, the inhibition in vivo at 50 mg/kg in the test on Rattus norvegicus [1] is 32.6%; with Rattus norvegicus [2], 90.9%; in the test with Rattus norvegicus [3], 82.4%; in the test with Rattus norvegicus [4], 62.7%; in the test on Rattus norvegicus [5] it was 61.8%; in the test on Rattus norvegicus [6], 69.5%.

Take `CCOC(=O)c1c(-c2ccc(Cl)c(Cl)c2)cc(-c2ccccc2)nc1Nc1ccc(C)cc1`: the inhibition in vivo at 50 mg/kg turned out to be 62.1% in the test on Rattus norvegicus [1]; 87.9% in the test with Rattus norvegicus [2]; 59.3% with Rattus norvegicus [3]; 40.8% with Rattus norvegicus [4]; 59.8% with Rattus norvegicus [5]; 59% in the test with Rattus norvegicus [6].

Turning to `CCOC(=O)c1c(-c2ccc(Cl)cc2)cc(-c2ccccc2)nc1Nc1ccc(OC)cc1`, the inhibition in vivo at 50 mg/kg in the test on Rattus norvegicus [1] worked out at 61.1%; in the test with Rattus norvegicus [2], 57.2%; with Rattus norvegicus [3] it was 68.8%; with Rattus norvegicus [4] it was 39.6%; with Rattus norvegicus [5] it was 38.9%; in the test on Rattus norvegicus [6] it was 33.3%.

As for `CCOC(=O)c1c(-c2ccc(Cl)cc2)cc(-c2ccccc2)nc1Nc1ccc(Cl)cc1`, the inhibition in vivo at 50 mg/kg in the test with Rattus norvegicus [1] turned out to be 40.6%; with Rattus norvegicus [2], 95.9%; in the test with Rattus norvegicus [3], 31.2%; in the test with Rattus norvegicus [4], 32.9%; with Rattus norvegicus [5], 65.2%; with Rattus norvegicus [6], 44.6%.

`CCOC(=O)c1c(-c2ccc(Cl)c(Cl)c2)cc(-c2ccccc2)nc1Nc1ccc(Cl)cc1`: the inhibition in vivo at 50 mg/kg with Rattus norvegicus [1] was determined as 61.9%; with Rattus norvegicus [2], 91.8%; in the test on Rattus norvegicus [3], 62.2%; in the test with Rattus norvegicus [4] it was 52.7%; with Rattus norvegicus [5], 62.4%; with Rattus norvegicus [6], 46.2%.

For `CCOC(=O)c1c(-c2ccc(F)cc2)cc(-c2ccccc2)nc1Nc1ccc(Cl)cc1`, the inhibition in vivo at 50 mg/kg in the test with Rattus norvegicus [5] came out at 78.4%.

`CCOC(=O)c1c(-c2ccc(C)cc2)cc(-c2ccccc2)nc1Nc1ccc(OC)cc1`: the inhibition in vivo at 50 mg/kg in the test with Rattus norvegicus [5] came out at 89.4%.

Take `CCOC(=O)c1c(-c2ccc(F)cc2)cc(-c2ccccc2)nc1N1CCCCC1`: in the test on Rattus norvegicus [5], the inhibition in vivo at 50 mg/kg was determined as 76%.

As for `CCOC(=O)c1c(-c2ccc(C)cc2)cc(-c2ccccc2)nc1N1CCCCC1`, in the test with Rattus norvegicus [5], the inhibition in vivo at 50 mg/kg stood at 78%.

In the case of `CCOC(=O)c1c(-c2ccc(C)cc2)cc(-c2ccccc2)nc1N1CCOCC1`, the inhibition in vivo at 50 mg/kg in the test on Rattus norvegicus [5] is 73%.

`CCOC(=O)c1c(-c2ccc(C)cc2)cc(-c2ccccc2)nc1Nc1ccc(Cl)cc1`: the inhibition in vivo at 50 mg/kg with Rattus norvegicus [5] was determined as 79.4%.

Take `CCOC(=O)c1c(-c2ccc(F)cc2)cc(-c2ccccc2)nc1Nc1ccccc1`: in the test on Rattus norvegicus [5], the inhibition in vivo at 50 mg/kg came out at 76%.

With `CCOC(=O)c1c(-c2ccc(F)cc2)cc(-c2ccccc2)nc1N1CCOCC1`, the inhibition in vivo at 50 mg/kg with Rattus norvegicus [5] is 72.7%.

As for `N#Cc1c(-c2ccc(N3CCCCC3)cc2)c(C#N)c2n(Cc3ccccc3)c([S-])n[n+]2c1N`, the inhibition in vivo at 50 mg/kg in the test with Rattus norvegicus [5] worked out at 67.4%.

As to `N#Cc1c(-c2ccc(N3CCOCC3)cc2)c(C#N)c2n(Cc3ccccc3)c([S-])n[n+]2c1N`, the inhibition in vivo at 50 mg/kg with Rattus norvegicus [5] turned out to be 39.3%.

For `CN1CCN(c2ccc(-c3c(C#N)c(N)[n+]4nc([S-])n(C)c4c3C#N)cc2)CC1`, the inhibition in vivo at 50 mg/kg in the test with Rattus norvegicus [5] is 36.6%.

For `C=CCn1c([S-])n[n+]2c(N)c(C#N)c(-c3ccc(N4CCOCC4)cc3)c(C#N)c12`, the inhibition in vivo at 50 mg/kg in the test on Rattus norvegicus [5] amounted to 60.6%.

Regarding `Cn1c([S-])n[n+]2c(N)c(C#N)c(-c3ccc(N4CCOCC4)cc3)c(C#N)c12`, the inhibition in vivo at 50 mg/kg in the test with Rattus norvegicus [5] is 45.4%.

Regarding `Cn1c([S-])n[n+]2c(N)c(C#N)c(-c3ccc(N4CCCCC4)cc3)c(C#N)c12`, the inhibition in vivo at 50 mg/kg with Rattus norvegicus [5] is 51.1%.

For the molecule `C=CCn1c([S-])n[n+]2c(N)c(C#N)c(-c3ccc(N4CCCCC4)cc3)c(C#N)c12`, the inhibition in vivo at 50 mg/kg in the test with Rattus norvegicus [5] worked out at 68.5%.

On to `COc1ccc2c(c1)c(CC(=O)O)c(C)n2C(=O)c1ccc(Cl)cc1` [INDOMETHACIN], for which the inhibition in vivo at 10 mg/kg was 59.9% in the test on Rattus norvegicus [7]; 62.8% with Rattus norvegicus [8]; 64.8% in the test on Rattus norvegicus [9]; 76.9% with Rattus norvegicus [10]; 68% in the test with Rattus norvegicus [11]. The inhibition in vivo at 50 mg/kg with Rattus norvegicus [2] worked out at 100%.

What is called inhibition in vivo is the relative decrease from the control value, in per cent.
